Measured values as given in patent EP4617261A1, “2,4,5-TRISUBSTITUTED PYRIMIDINE COMPOUND, PREPARATION METHOD THEREFOR, AND USE THEREOF” (Wenzhou Medical University, priority 2022, dated 2024).

Legend:
FGFR1 kinase = target: T1, FGFR1 kinase (Homo sapiens, UniProt P11362); assay: LANCE ULTRA Assay, inhibitory activity on FGFR1 kinase; assay type: biochemical; settings: for inhibition at 0.1 µM: read-out: In vitro FGFR1 kinase inhibition rate (%) (Concentration in 100 nM), Concentration 100 nM; for inhibition at 1 µM: read-out: In vitro FGFR1 kinase inhibition rate (%) (Concentration in 1000 nM), Concentration 1000 nM
T1 construct: purchased CARNA
T1 sequence (P11362 22-822): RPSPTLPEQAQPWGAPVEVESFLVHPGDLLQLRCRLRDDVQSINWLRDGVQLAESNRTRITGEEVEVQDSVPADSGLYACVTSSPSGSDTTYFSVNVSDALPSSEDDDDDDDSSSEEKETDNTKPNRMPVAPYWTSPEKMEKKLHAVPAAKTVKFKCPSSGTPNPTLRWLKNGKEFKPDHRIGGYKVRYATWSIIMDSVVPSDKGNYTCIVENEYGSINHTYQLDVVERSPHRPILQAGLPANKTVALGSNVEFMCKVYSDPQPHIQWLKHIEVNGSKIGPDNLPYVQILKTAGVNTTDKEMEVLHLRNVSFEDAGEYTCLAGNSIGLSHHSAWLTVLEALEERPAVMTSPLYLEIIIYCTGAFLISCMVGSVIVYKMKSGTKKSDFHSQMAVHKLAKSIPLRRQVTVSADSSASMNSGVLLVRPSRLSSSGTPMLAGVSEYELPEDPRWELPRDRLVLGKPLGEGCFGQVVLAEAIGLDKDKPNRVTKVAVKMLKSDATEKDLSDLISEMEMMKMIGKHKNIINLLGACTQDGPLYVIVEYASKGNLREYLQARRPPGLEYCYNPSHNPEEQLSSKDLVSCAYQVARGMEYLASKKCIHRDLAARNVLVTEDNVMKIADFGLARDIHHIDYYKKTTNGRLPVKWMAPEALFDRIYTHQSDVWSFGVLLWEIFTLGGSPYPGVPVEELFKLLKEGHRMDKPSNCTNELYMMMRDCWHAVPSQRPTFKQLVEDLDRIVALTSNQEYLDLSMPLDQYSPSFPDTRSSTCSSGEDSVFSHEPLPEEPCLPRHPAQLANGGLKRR
Description: The inhibitory activity of the compounds on FGFR1 kinase was determined using a LANCE ULTRA Assay. The FGFR1 kinase was purchased from CARNA. Specific method was as follows: the compounds under test, adenosine triphosphate (ATP), specific substrate, and FGFR1 kinase were diluted with kinase diluent. A kinase reaction mixture contained FGFR1, ATP, substrate, HEPES (pH = 7.5), MgCl2, EGTA, and Tween-20. A group without any test compound served as a 100% phosphorylation control, and a group where EDTA was added immediately after the addition of FGFR1 kinase served as a 0% phosphorylation control. The kinase reaction mixture was incubated at room temperature for 1 h, and EDTA was added to terminate the reaction for 5 min, a specific antibody was then added, and the mixture was incubated at room temperature for another 1 h, and excitation light was detected using a PerkinElmer Envision Kinase Reader.

MRC-5 = assay: MTT assay, cell proliferation, MRC-5; assay type: cell-based; settings: Homo sapiens, MRC5, MRC-5 cells, 72 h
Description: (§1) The effect of active compounds on cell proliferation was measured using an MTT assay. An experimental method was described as follows: the compounds under test were first dissolved in DMSO to prepare a stock solution, which was then diluted in gradient with a culture medium of the corresponding cells to prepare test samples, with a final concentration range of the compounds up to 20 µM. Cells in a logarithmic growth phase were seeded into 96-well cell culture plates at an appropriate density, and cultured overnight under corresponding culture conditions, and samples of the compound under test were added and continuously cultured for 72 h.

H1581 = assay: MTT assay, cell proliferation, H1581; assay type: cell-based; settings: Homo sapiens, NCI-H1581, H1581 cells, 72 h
Description: as §1

A549 = assay: MTT assay, cell proliferation, A549; assay type: cell-based; settings: Homo sapiens, A549 cells, 72 h
Description: as §1, with “An” for “The effect of active compounds on cell proliferation was measured using an MTT assay. An”

| Compound | inhibition at 0.1 µM (FGFR1 kinase) | other results |
| --- | --- | --- |
| C=CC(=O)Nc1ccc(Nc2nc(Nc3ccc(N4C[C@@H](C)N[C@@H](C)C4)c(OC)c3)ncc2Cl)cc1Cl [Compound 46] |  | IC50 (MRC-5): 0.84 ± 0.07 µM; IC50 (H1581): 0.018 ± 0.00178 µM; IC50 (A549): 0.38 ± 0.1 µM |
| C=CC(=O)Nc1cccc(C)c1Nc1nc(Nc2ccc(N3CCN(C)CC3)cc2)ncc1F [Compound 10] |  | inhibition at 1 µM (FGFR1 kinase): 1.23% |
| C=CC(=O)Nc1ccccc1Nc1nc(Nc2ccc(N3CCN(C)CC3)cc2)ncc1Cl [Compound 9] |  | inhibition at 1 µM (FGFR1 kinase): 94.9% |
| C=CC(=O)Nc1cccc(C)c1Nc1nc(Nc2ccc(N3CCN(C)CC3)cc2)ncc1OC [Compound 13] | -0.1% |  |
| C=CC(=O)Nc1cccc(C)c1Nc1nc(Nc2ccc(N3CCN(C)CC3)cc2)ncc1C [Compound 12] | -1.1% |  |
| CCN1CCN(c2ccc(Nc3cc(N(C)C(=O)Nc4c(Cl)c(OC)cc(OC)c4Cl)ncn3)cc2)CC1 [BGJ398, reference compound] |  | IC50 (MRC-5): 144 µM; IC50 (H1581): 0.0867 ± 0.00151 µM |
| C=CC(=O)Nc1cccc(C)c1Nc1nc(Nc2ccc(N3CCN(C)CC3)cc2)ncc1Cl [Compound 11, N-(2-((5-chloro-2-((4-(4-methylpiperazine-1-yl)phenyl)amino)pyrimidine-4-yl)amino)-3-methylphenyl)acrylamide] | 1.4% |  |

Further lines, with some results ahead:

| inhibition at 0.1 µM (FGFR1 kinase) | Compound | other results |
| --- | --- | --- |
| 5.5% | C=CC(=O)Nc1ccc(CNc2nc(Nc3ccc(N4CCN(C)CC4)cc3)ncc2F)cc1 [Compound 18] |  |
| 50.3% | C=CC(=O)NC(=O)c1ccc(Nc2nc(Nc3ccc(N4CCN(C)CC4)cc3)ncc2Cl)cc1Cl [Compound 38, N-acryloyl-2-chloro-4-((5-chloro-2-((4-(4-methylpiperazine-1-yl)phenyl)amino)pyrimidine-4-yl)amino)benzamide] |  |
| 66.4% | C=CC(=O)Nc1ccc(CCNc2nc(Nc3ccc(N4CCN(C)CC4)cc3)ncc2Cl)cc1 [Compound 33, N-(4-(2-((5-chloro-2-((4-(4-methylpiperazine-1-yl)phenyl)amino)pyrimidine-4-yl)amino)ethyl)phenyl)acrylamide] | IC50 (FGFR1 kinase; read-out: In vitro FGFR1 kinase IC50 value): 60.7 nM |
| 11.4% | C=CC(=O)Nc1cccc(C)c1Nc1nc(Nc2ccc(N3CCN(C)CC3)cc2)ncc1C(F)(F)F [Compound 14] |  |
| 43% | C=CC(=O)Nc1ccc(CCNc2nc(Nc3ccc(N4CCN(C)CC4)cc3)ncc2F)cc1 [Compound 17] |  |
